From patent US6630583B1, “Antibiotics and methods of using the same” (priority 1998, dated 2003)
“Also recorded” adds a separate entry of the source.

Tests used:
[1] = system: leucine deprived R6 cells; test: Stringent response: lysis after leucine deprivation; type: cell-based, S. pneumoniae
Procedure: P27 and the stringent response mechanism: The stringent response is believed to prevent the death pathway. To clarify the relationship of the stringent response to P27 activity, protein synthesis of R6 was inhibited by leucine deprivation and the effect of P27 was monitored (FIG. 19). […] The minimum concentration of penicillin required to cause penicillin dependent autolysis was equal to its MIC ([…]).

HK mutant Van S = test: Lysis of HK mutant; type: cell-based, pneumococcus; conditions: 10×MIC of penicillin and/or 0.5 mM peptide
Procedure: (§1) FIGS. 11A-11B show the effects of 10×MIC of penicillin and/or 0.5 mM of the peptide having the amino acid sequence of SEQ ID NO:2 on the lysis of clinical isolate F79 cells (FIG. 11A) and HK mutant VanS cells (FIG. 11B).
(§2) F79 is a natural isolate of pneumococcus with mutations in the HK and the ABC transporter genes as determined by SSCP (see Example 11).

HK mutant = test: Phenotypes of the mutants: lysis by penicillin, vancomycin, DOC; type: cell-based, S. pneumoniae
Procedure: (§3) Construction of mutations: Insertion duplication mutagenesis was carried out using PCR to generate gene fragments for homologous recombination proximal to the amino terminus of OrfW1, HK or RR as follows:
(§4) Phenotypes of the mutants: The mutants were assessed for various physiological functions characteristic of pneumococci. This included lysis by penicillin, vancomycin, and the detergent deoxycholate (DOC). Other capabilities tested included ability to undergo natural DNA transformation (Transform) and expression of the LytA protein as assessed by Western blot.

Orf W1 mutant = test: as above; type: cell-based, S. pneumoniae
Procedure: as §3, §4

RR mutant = test: as above; type: cell-based, S. pneumoniae
Procedure: as §3, §4

pneumococcal strain R6 = test: Cell growth curves (OD 620 nm) and viability of R6 with peptide; type: cell-based, Streptococcus pneumoniae; conditions: for ability to inhibit R6 growth: peptides at 100 μM added to growing R6 at OD 620 nm of 0.1
Procedure: (§5) Cell growth curves were performed in the presence or absence of the test reagents as specified. In short, samples were prepared as follows: 1 ml of a pneumococcus culture was placed into 10 ml of prewarmed Semisynthetic (C+Y) medium. The optical density (OD) of the bacteria was monitored at 620 nm until an OD of approximately 0.1 was reached. At this point the test reagents were administered to the samples. The cells were cultured for up to 11 hours at 37° Celsius, and the OD at 620 nm was monitored every hour. A decrease in OD 620 is indicative of cell lysis, an increase is indicative of bacterial growth. No change in optical density indicates growth inhibition.
To characterize the antibacterial activity of the peptide, pneumococcal strain R6 which is sensitive to penicillin was exposed to 0.1 mM of the peptide having the amino acid sequence of SEQ ID NO:2 at an optical density of 0.01 (bacterial density of 3×10^6 cfu/ml). Bacterial growth as measured by optical density was followed for 11 hours and viability was assessed by plating on blood agar. […] Four hours after the start of the experiment, the control strain grew from 3×10^6 to 1.2×10^7 cfu/ml. In contrast, four hours after addition of the peptide, the viable bacterial number decreased from 3×10^6 to 3×10^4 CFU/ml (10^3-fold lower than the control).
The fact that the peptide is active in the range below 1 μg/ml places the potency of its antibacterial effect in the same range as conventional antibiotics.
R6 with no peptide was the control and underwent exponential growth. […] This enhanced activity may result from an improvement in folding of the peptide or greater access to the bacterial target.

[2] = system: pneumococcus R6 in medium lacking lysine; test: Phenotypic tolerance: lysis under starvation conditions; type: cell-based; conditions: for lysis response of non-growing bacteria: 10×MIC of penicillin and/or 0.5 mM peptide
From the text: When bacteria grow slowly or stop growing due to nutrient deprivation, they become tolerant to antibiotics of all classes. […] This prolongs the course of antibiotics needed to treat these infections. For instance, many weeks of therapy are required to treat endocarditis and osteomyelitis secondary to slowly growing bacteria. An in vitro example of phenotypic tolerance is shown in FIG. 10 where pneumococcus R6 has been transferred at time 0 to a medium lacking the essential amino acid lysine. Penicillin was added 5 min after the transfer. […] This same response is seen with the peptide having the amino acid sequence of SEQ ID NO:2.

clinical isolate F79 = test: Lysis of tolerant clinical isolate; type: cell-based, pneumococcus; conditions: 10×MIC of penicillin and/or 0.5 mM peptide
Procedure: as §1, §2

clinical isolate A144 [3] = test: Cell viability (CFU/ml) one hour after addition; type: cell-based, pneumococcus; conditions: 10×MIC of penicillin, 1×MIC of vancomycin or 0.4 mM peptide
From the text: (§6) Tolerance to penicillin occurs in bacteria that fail to trigger autolysins in response to the drug. […] This is a mechanism of resistance to these drugs and is a serious emerging medical problem. […] However, one pneumococcal strain that fails to lyse and dies slowly in response to both penicillin and vancomycin is the clinical isolate A144. This combination of traits makes A144 recalcitrant to therapy. FIG. 8 compares the activity of penicillin, vancomycin, and the peptide having the amino acid sequence of SEQ ID NO:2 against a classical sensitive strain, R6, and the tolerant strain A144. […] In contrast, strain A144 loses only 0.5 logs of viability in the same time period for all three therapies. […] Thereafter the bacteria grew more slowly than untreated controls.

mutant SPSJ01 = test: Screen of library of loss of function mutants for antibiotic tolerance; type: cell-based, pneumococcus
From the text: To detect genes that are part of the trigger pathway of the pneumococcal autolysin a library of loss of function mutants has been created, which was screened for antibiotic tolerance [Pearce et al., Mol. Microbiol., 9:1037-1050 (1993)]. […] It is reasonable to assume that this two component system represents the start of the pneumococcal autolytic trigger pathway, functioning as a relay station reacting to cell density signals or the binding of antibiotics to penicillin binding proteins. Similar to the enterococcal histidine kinase VanSB, the pneumococcal VncS works most likely as a kinase/phosphatase (see Example 1, above).

[4] = system: loss of function mutants of the ABC transporter and RR/HK; test: Tolerance of loss of function mutants; type: cell-based, S. pneumoniae; conditions: growth inhibitory concentrations
From the text: As described in Example 6, using insertion duplication mutagenesis, loss of function mutations were obtained in each of the 3 open reading frames of the ABC transporter and each of the two parts of the RR/HK. […] These parallel phenotypes further implicate these topographically close genes in a common pathway.
Vancomycin is the only antibiotic that maintains efficacy against many strains of highly antibiotic resistant bacteria, such as staphylococci, enterococci and pneumococci. Escape from antibiotic activity of vancomycin has been detected in rare staphylococci and enterococci but not in pneumococci as yet. […] Infect. Dis. J., 12:196-200 (1993); Marton et al., J. Infect. Dis., 163:542-8 (1991); and Bradley et al., Pediatr. Infect. Dis., 14:1037-1041 (1995)]. […] If they created a phenotype which was corrected by exogenous peptide, they may participate in the biological activity of the peptide. For instance, the ABC transporter may transport the peptide and the HK may serve as an extracellular receptor for the peptide which then changes the behavior of the bacteria (i.e., killing) via a RR signal.

clinical isolate A144 [5] = test: Growth of the clinical isolate; type: cell-based, pneumococcus; conditions: 0.1 mM peptide added early in the growth cycle
From the text: as §6

RR/HK mutants = test: Antibacterial activity of the peptide in the mutants; type: cell-based, S. pneumoniae; conditions: peptide added exogenously
From the text: (§7) To test this hypothesis the ability of the peptide having the amino acid sequence of SEQ ID NO:2 to maintain antibacterial activity in the mutants was examined. […] Furthermore, bacteria which are tolerant by virtue of phenotypic tolerance due to slow growth rate or mutations in genes other than the RR/HK will be susceptible to the antibacterial effect of the peptide having the amino acid sequence of SEQ ID NO:2.

mutant in ORF W1 = test: as above; type: cell-based, S. pneumoniae; conditions: mutant in ORF W1, peptide added from the outside
From the text: as §7

Lyt 4-4 = test: Loss of chain formation (morphology); type: cell-based, Streptococcus pneumoniae; conditions: Lyt 4-4, 0.5 mM peptide in the medium
From the text: Loss of chain formation is a measure of antibacterial activity independent of autolysin.
Strains of pneumococcus that are tolerant to penicillin, such as Lyt 4-4, grow in long chains as compared to the diplococcal morphology of wild type pneumococci. FIG. 6A illustrates these chains, which extend to 30-50 bacteria in length.
P27 is capable of triggering different autolytic pathways: To identify the relationship between P27 and the activation of the autolysin LytA, the bactericidal effect of the peptide on the pneumococcal mutant Lyt-4-4 (which is deficient in the major autolysin), was investigated. […] Compared to the diplococcal morphology of wild type pneumococci, pneumococci lacking an active autolysin grow in long chains.

[6] = system: autolysin deficient strain Lyt 4-4; test: Growth and killing of autolysin deficient strain; type: cell-based, Streptococcus pneumoniae; conditions: Lyt 4-4, 0.1 mM peptide
Procedure: The addition of the additives were made at time “0” hours. The strain of bacteria cultured was the Lyt-4-4 strain of Streptococcus pneumoniae which harbors a mutation leading to the loss of LytA activity. The peptide having the amino acid sequence of SEQ ID NO:2 was added as indicated at a concentration of 0.1 mM. Lyt-4-4 lacks active autolysin LytA and is therefore tolerant to penicillin treatment.
as §5
This antibacterial effect was also demonstrable in bacteria mutated so as to prevent autolysis by point mutation in the autolysin, as in the autolysin deficient strain Lyt 4-4. […]

CC1(C)S[C@@H]2[C@H](NC(=O)Cc3ccccc3)C(=O)N2[C@H]1C(=O)O [penicillin, benzylpenicillin]
lysis of R6 under leucine deprivation ([1]; 10×MIC of penicillin or vancomycin, 0.2 mM P27, or combination): neither the addition of 10×the MIC of penicillin or vancomycin nor the addition of 0.2 mM P27 resulted in lysis | minimum concentration of penicillin required to cause penicillin dependent autolysis ([1]; leucine deprived R6, in combination with P27): 0.1 mg/mL | lysis of Van S (HK mutant Van S): tolerance | Lysis by (HK mutant): tolerant | Lysis by (Orf W1 mutant): tolerant | Lysis by (RR mutant): sensitive | time to lysis of R6 (pneumococcal strain R6; growing R6, penicillin at 10×MIC): within one hour | viability of non-growing bacteria ([2]; 10×MIC of penicillin): unaffected | lysis response of non-growing bacteria [2]: only a minimal response | lysis of F79 (clinical isolate F79): tolerant | loss of viability (clinical isolate A144 [3]): 0.5 logs | death in the presence of antibiotic (mutant SPSJ01): failed to die | tolerance (lysis and death) [4]: failed to lyse and die

MEFMRKEFHNVLSSGQLLADKRPARDYN (listed as Streptococcus pneumoniae) [SEQ ID NO:12]
antibacterial activity against R6 (pneumococcal strain R6): no antibacterial activity

MRKEFHNVLSAGQLLADKRPARDYN [Peptide 3]
ability to inhibit R6 growth (pneumococcal strain R6): greatly enhanced antibacterial effect

MRKEFHNVLSSGQLLADKRPARDAN [Peptide 2]
ability to inhibit R6 growth (pneumococcal strain R6): greatly decreased anti-bacterial activity

MRKEFHNVLSSGQL (listed as Streptococcus pneumoniae) [Peptide 4]
ability to inhibit R6 growth (pneumococcal strain R6): Exponential growth equal to untreated bacteria

MRKEFHNVLSSGQLLADKRPARDYN (listed as Streptococcus pneumoniae) [Peptide 1]
growth of strain A144 (clinical isolate A144 [5]): significantly inhibits the growth of strain A144 for 4 hours | growth inhibition (RR/HK mutants): did not function to inhibit the growth | growth inhibition (mutant in ORF W1): not able to inhibit growth | lysis of Van S (HK mutant Van S): not responsive | chain formation (Lyt 4-4; listed as SEQ ID NO.2): dissolution of the chains | chain formation (Lyt 4-4; listed as SEQ ID NO:2): reversion of the chains to diplococci | Bacterial growth as measured by optical density (pneumococcal strain R6; R6, 0.1 mM peptide, followed for 11 hours): completely inhibited growth | viable number, fold lower than the control (pneumococcal strain R6; R6, 0.1 mM peptide, four hours): 10^3 fold | viable bacterial number (pneumococcal strain R6; R6, 0.1 mM peptide, four hours after addition, start 3×10^6): 3×10^4 CFU/ml | lysis (pneumococcal strain R6; R6, 0.1 mM peptide, listed as SEQ ID NO:2): without substantial cell lysis; also recorded: No lysis was detected | minimum effective concentration (MEC) (pneumococcal strain R6; R6, converted with molecular weight 2940): 0.15 to 0.3 µg/mL | minimum effective concentration (pneumococcal strain R6; R6, optical density over 4 hours): 50 to 100 nM | dose dependence of antibacterial activity (pneumococcal strain R6; R6, various amounts of peptide, 4 hours): dose dependent antibacterial activity | ability to inhibit R6 growth (pneumococcal strain R6): significant delay in the onset of bacterial growth | lysis response of non-growing bacteria [2]: same response | loss of viability (clinical isolate A144 [3]): 0.5 logs | bactericidal activity [6]: demonstrable

LADKRPARDYN (listed as Streptococcus pneumoniae) [Peptide 5]
ability to inhibit R6 growth (pneumococcal strain R6): Exponential growth equal to untreated bacteria

deoxycholate [DOC]
Lysis by (HK mutant): yes | Lysis by (Orf W1 mutant): no | Lysis by (RR mutant): yes
